Test results published in article PMC3736852 (Endocrine-related cancer, 2012).

Target: T1, Na+/I− symporter (NIS) (Rattus norvegicus, UniProt Q63008)
T1 sequence (Q63008 1-618): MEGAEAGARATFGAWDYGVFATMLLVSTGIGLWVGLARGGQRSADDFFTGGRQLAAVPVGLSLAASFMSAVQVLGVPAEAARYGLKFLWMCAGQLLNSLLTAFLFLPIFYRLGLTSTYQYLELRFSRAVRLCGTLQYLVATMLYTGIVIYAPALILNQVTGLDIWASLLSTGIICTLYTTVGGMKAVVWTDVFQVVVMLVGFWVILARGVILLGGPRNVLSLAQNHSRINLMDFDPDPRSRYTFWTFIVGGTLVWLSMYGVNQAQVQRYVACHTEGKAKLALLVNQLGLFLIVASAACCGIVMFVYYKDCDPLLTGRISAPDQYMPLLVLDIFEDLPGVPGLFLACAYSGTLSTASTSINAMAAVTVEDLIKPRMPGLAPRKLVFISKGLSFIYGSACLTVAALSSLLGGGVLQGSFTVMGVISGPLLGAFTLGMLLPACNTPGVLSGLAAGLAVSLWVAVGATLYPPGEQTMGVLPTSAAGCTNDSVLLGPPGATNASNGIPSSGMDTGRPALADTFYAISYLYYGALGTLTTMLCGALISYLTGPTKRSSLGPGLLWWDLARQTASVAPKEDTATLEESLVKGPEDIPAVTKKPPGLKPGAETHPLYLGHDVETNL
Experiment: inhibition of NIS-mediated […] radioiodide uptake
Assay type: cell-based

## [O-][Cl+3]([O-])([O-])O [perchlorate]
  IC50: 3 µM
